The results in this text go back to patent US20230374015A1, “INHIBITORS OF FIBROBLAST GROWTH FACTOR RECEPTOR KINASES” (Kinnate Biopharma Inc., priority 2020, published 2023).

This test has as its target FGFR2 (Homo sapiens, UniProt P21802). In words: FGFR2 Kinase Protocol - Condition 2 (Reaction Biology HotSpot radiometric kinase assay, no preincubation). It is filed as biochemical. As to conditions: poly[Glu:Tyr] (4:1) 0.2 mg/ml, ATP 100 microM, 2 hr room temperature. Put shortly: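 Radiometric HotSpot format: FGFR2 (wildtype or V564F) with poly[Glu:Tyr] (4:1) at 0.2 mg/ml in HEPES pH 7.5 buffer with 1% DMSO; ATP plus [γ33P]ATP at 100 µM total, added without preincubation. Reactions ran 2 hr at room temperature, then filter-bound. IC50 from 10-dose, 3-fold series versus DMSO control.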

FGFR2, sequence (P21802 22-821): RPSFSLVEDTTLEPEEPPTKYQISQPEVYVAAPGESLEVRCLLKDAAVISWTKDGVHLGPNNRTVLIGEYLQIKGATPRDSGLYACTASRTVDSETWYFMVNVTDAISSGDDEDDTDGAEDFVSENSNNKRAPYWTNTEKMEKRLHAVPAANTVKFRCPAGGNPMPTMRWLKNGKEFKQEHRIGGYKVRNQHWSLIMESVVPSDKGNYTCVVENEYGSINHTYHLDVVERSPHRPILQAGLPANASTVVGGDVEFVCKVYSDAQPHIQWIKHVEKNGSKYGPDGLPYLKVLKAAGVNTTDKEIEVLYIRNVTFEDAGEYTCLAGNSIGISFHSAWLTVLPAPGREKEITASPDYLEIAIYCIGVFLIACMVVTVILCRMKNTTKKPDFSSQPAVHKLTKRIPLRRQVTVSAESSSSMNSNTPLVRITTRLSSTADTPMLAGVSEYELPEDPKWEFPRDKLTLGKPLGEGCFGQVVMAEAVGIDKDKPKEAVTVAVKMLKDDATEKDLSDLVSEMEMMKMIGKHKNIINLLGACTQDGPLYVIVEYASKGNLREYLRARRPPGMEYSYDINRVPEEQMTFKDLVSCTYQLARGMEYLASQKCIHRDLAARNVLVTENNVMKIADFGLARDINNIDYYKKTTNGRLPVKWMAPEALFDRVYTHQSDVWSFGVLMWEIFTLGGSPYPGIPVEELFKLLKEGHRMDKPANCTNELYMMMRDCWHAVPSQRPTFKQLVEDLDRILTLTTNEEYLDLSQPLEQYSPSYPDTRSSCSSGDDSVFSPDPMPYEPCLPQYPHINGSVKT

For `C=CC(=O)N1C[C@@H](n2cc(C#Cc3cc4ncn(C5CC5)c4cc3F)c3c(N)ncnc32)C[C@@H]1COC` [Example 110, 1-[(2R,4S)-4-[4-Amino-5-[2-(1-cyclopropyl-6-fluoro-1,3-benzodiazol-5-yl)ethynyl]pyrrolo[2,3-d]pyrimidin-7-yl]-2-(methoxymethyl)pyrrolidin-1-yl]prop-2-en-1-one], the IC50 is ≤ 100 nM.
To `C=CC(=O)N1C[C@@H](n2nc(C#Cc3ccc4scnc4c3)c3c(N)ncnc32)C[C@@H]1COC` [Example 112, 1-((2R,4S)-4-(4-Amino-3-(benzo[d]thiazol-5-ylethynyl)-1H-pyrazolo[3,4-d]pyrimidin-1-yl)-2-(methoxymethyl)pyrrolidin-1-yl)prop-2-en-1-one] belongs ≤ 100 nM; to `C=CC(=O)N1C[C@@H](n2cc(C#Cc3c(Cl)cc4c(nc(C)n4C)c3F)c3c(N)ncnc32)C[C@@H]1COC` [Example 113, 1-((2R,4S)-4-(4-Amino-5-((6-chloro-4-fluoro-1,2-dimethyl-1H-benzo[d]imidazol-5-yl)ethynyl)-7H-pyrrolo[2,3-d]pyrimidin-7-yl)-2-(methoxymethyl)pyrrolidin-1-yl)prop-2-en-1-one], ≤ 100 nM; to `C=CC(=O)N1C[C@@H](n2nc(C#Cc3ccn4ncnc4c3)c3c(N)ncnc32)C[C@@H]1COC` [Example 114, 1-[(2R,4S)-4-[4-Amino-3-(2-[[1,2,4]triazolo[1,5-a]pyridin-7-yl]ethynyl)pyrazolo[3,4-d]pyrimidin-1-yl]-2-(methoxymethyl)pyrrolidin-1-yl]prop-2-en-1-one], 100 to 1000 nM.
As to `C=CC(=O)N1C[C@@H](n2nc(C#Cc3ccc4ocnc4c3)c3c(N)ncnc32)C[C@@H]1COC` [Example 115, 1-[(2R,4S)-4-[4-Amino-3-[2-(1,3-benzoxazol-5-yl)ethynyl]pyrazolo[3,4-d]pyrimidin-1-yl]-2-(methoxymethyl)pyrrolidin-1-yl]prop-2-en-1-one], the IC50 was ≤ 100 nM.
In the case of `C=CC(=O)N1C[C@@H](n2nc(C#Cc3c(Cl)cc4c(ncn4CC)c3F)c3c(N)ncnc32)C[C@@H]1COC` [Example 116, 1-[(2R,4S)-4-[4-Amino-3-[2-(6-chloro-1-ethyl-4-fluoro-1,3-benzodiazol-5-yl)ethynyl]pyrazolo [3,4-d]pyrimidin-1-yl]-2-(methoxymethyl)pyrrolidin-1-yl]prop-2-en-1-one], the IC50 is ≤ 100 nM.
Regarding `C=CC(=O)N1C[C@@H](n2nc(C#Cc3c(Cl)cc4c(ncn4CC)c3F)c3c(N)nccc32)C[C@@H]1COC` [Example 117, 1-[(2R,4S)-4-[4-Amino-3-[2-(6-chloro-1-ethyl-4-fluoro-1,3-benzodiazol-5-yl)ethynyl]pyrazolo[4,3-c]pyridin-1-yl]-2-(methoxymethyl)pyrrolidin-1-yl]prop-2-en-1-one], the IC50 was ≤ 100 nM.
Turning to `C=CC(=O)N1C[C@@H](n2cc(C#Cc3c(Cl)cc4c(ncn4CC)c3F)c3c(N)ncnc32)C[C@@H]1COC` [Example 118, 1-1-[(2R,4S)-4-[4-Amino-5-[2-(6-chloro-1-ethyl-4-fluoro-1,3-benzodiazol-5-yl)ethynyl]pyrrolo[2,3-d]pyrimidin-7-yl]-2-(methoxymethyl)pyrrolidin-1-yl]prop-2-en-1-one], the IC50 is ≤ 100 nM.
Consider `C=CC(=O)N1C[C@@H](n2nc(C#Cc3cc4ncoc4cc3F)c3c(N)ncnc32)C[C@@H]1COC` [Example 119, 1-[(2R,4S)-4-[4-Amino-3-[2-(6-fluoro-1,3-benzoxazol-5-yl)ethynyl]pyrazolo[3,4-d]pyrimidin-1-yl]-2-(methoxymethyl)pyrrolidin-1-yl]prop-2-en-1-one], for which the IC50 is ≤ 100 nM.
To `C=CC(=O)N1C[C@@H](n2nc(C#Cc3cc4ncn(C)c4c(F)c3F)c3c(N)ncnc32)C[C@@H]1COC` [Example 120, 1-((2R,4S)-4-(4-Amino-3-((6,7-difluoro-1-methyl-1H-benzo[d]imidazol-5-yl)ethynyl)-1H-pyrazolo[3,4-d]pyrimidin-1-yl)-2-(methoxymethyl)pyrrolidin-1-yl)prop-2-en-1-one] belongs ≤ 100 nM; to `C=CC(=O)N1C[C@@H](n2nc(C#Cc3cc4ncn(C)c4c(F)c3Cl)c3c(N)ncnc32)C[C@@H]1COC` [Example 121, 1-[(2R,4S)-4-[4-Amino-3-[2-(6-chloro-7-fluoro-1-methyl-1,3-benzodiazol-5-yl)ethynyl]pyrazolo[3,4-d]pyrimidin-1-yl]-2-(methoxymethyl)pyrrolidin-1-yl]prop-2-en-1-one], ≤ 100 nM; to `C=CC(=O)N1C[C@@H](n2nc(C#Cc3cc4nc(C)n(C)c4c(F)c3F)c3c(N)ncnc32)C[C@@H]1COC` [Example 122, 1-[(2R,4S)-4-[4-Amino-3-[2-(6,7-difluoro-1,2-dimethyl-1,3-benzodiazol-5-yl)ethynyl]pyrazolo[3,4-d]pyrimidin-1-yl]-2-(methoxymethyl)pyrrolidin-1-yl]prop-2-en-1-one], ≤ 100 nM.
As to `C=CC(=O)N1C[C@@H](n2nc(C#Cc3cc4ncn(CC)c4c(F)c3F)c3c(N)ncnc32)C[C@@H]1COC` [Example 123, 1-[(2R,4S)-4-[4-Amino-3-[2-(1-ethyl-6,7-difluoro-1,3-benzodiazol-5-yl)ethynyl]pyrazolo[3,4-d]pyrimidin-1-yl]-2-(methoxymethyl)pyrrolidin-1-yl]prop-2-en-1-one], the IC50 is ≤ 100 nM.
On to `C=CC(=O)N1C[C@@H](n2nc(C#Cc3cc4nccn4cc3F)c3c(N)ncnc32)C[C@@H]1COC` [Example 124, 1-((2R,4S)-4-(4-Amino-3-((6-fluoroimidazo[1,2-a]pyridin-7-yl)ethynyl)-1H-pyrazolo[3,4-d]pyrimidin-1-yl)-2-(methoxymethyl)pyrrolidin-1-yl)prop-2-en-1-one], for which the IC50 was ≤ 100 nM.
To `C=CC(=O)N1C[C@@H](n2nc(C#Cc3cc4nc(C)n(C)c4c(F)c3Cl)c3c(N)ncnc32)C[C@@H]1COC` [Example 125, 1-[(2R,4S)-4-[4-Amino-3-[2-(6-chloro-7-fluoro-1,2-dimethyl-1,3-benzodiazol-5-yl)ethynyl]pyrazolo[3,4-d]pyrimidin-1-yl]-2-(methoxymethyl)pyrrolidin-1-yl]prop-2-en-1-one] belongs ≤ 100 nM; to `C=CC(=O)N1C[C@@H](n2nc(C#Cc3cc4ncn(C5CC5)c4cc3Cl)c3c(N)ncnc32)C[C@@H]1COC` [Example 126, 1-[(2R,4S)-4-[4-Amino-3-[2-(6-chloro-1-cyclopropyl-1,3-benzodiazol-5-yl)ethynyl]pyrazolo[3,4-d]pyrimidin-1-yl]-2-(methoxymethyl)pyrrolidin-1-yl]prop-2-en-1-one], ≤ 100 nM.
To `C=CC(=O)N1C[C@@H](n2cc(C#Cc3cc4ncn(C5CC5)c4cc3Cl)c3c(N)ncnc32)C[C@@H]1COC` [Example 127, 1-[(2R,4S)-4-[4-Amino-5-[2-(6-chloro-1-cyclopropyl-1,3-benzodiazol-5-yl)ethynyl]pyrrolo[2,3-d]pyrimidin-7-yl]-2-(methoxymethyl)pyrrolidin-1-yl] prop-2-en-1-one] belongs ≤ 100 nM.
To `C=CC(=O)N1C[C@@H](n2nc(C#Cc3cc4ncn(CC)c4c(F)c3Cl)c3c(N)ncnc32)C[C@@H]1COC` [Example 128, 1-[(2R,4S)-4-[4-amino-3-[2-(6-chloro-1-ethyl-7-fluoro-1,3-benzodiazol-5-yl)ethynyl]pyrazolo[3,4-d]pyrimidin-1-yl]-2-(methoxymethyl)pyrrolidin-1-yl]prop-2-en-1-one] belongs ≤ 100 nM; to `C=CC(=O)N1C[C@@H](n2nc(C#Cc3cc4nc(C)n(C(F)F)c4cc3Cl)c3c(N)ncnc32)C[C@@H]1COC` [Example 129, 1-[(2R,4S)-4-(4-Amino-3-{2-[6-chloro-1-(difluoromethyl)-2-methyl-1,3-benzodiazol-5-yl]ethynyl}pyrazolo[3,4-d]pyrimidin-1-yl)-2-(methoxymethyl)pyrrolidin-1-yl]prop-2-en-1-one], ≤ 100 nM; to `C=CC(=O)N1C[C@@H](n2nc(C#Cc3cc4nc(C)n(C(F)F)c4cc3Cl)c3c(N)nccc32)C[C@@H]1COC` [Example 130, 1-[(2R,4S)-4-(4-Amino-3-{2-[6-chloro-1-(difluoromethyl)-2-methyl-1,3-benzodiazol-5-yl]ethynyl}pyrazolo[4,3-c]pyridin-1-yl)-2-(methoxymethyl)pyrrolidin-1-yl]prop-2-en-1-one], ≤ 100 nM.
Consider `C=CC(=O)N1C[C@@H](n2cc(C#Cc3cc4nc(C)n(C(F)F)c4cc3Cl)c3c(N)ncnc32)C[C@@H]1COC` [Example 131, 1-[(2R,4S)-4-(4-Amino-5-{2-[6-chloro-1-(difluoromethyl)-2-methyl-1,3-benzodiazol-5-yl]ethynyl}pyrrolo[2,3-d]pyrimidin-7-yl)-2-(methoxymethyl)pyrrolidin-1-yl]prop-2-en-1-one], for which the IC50 is ≤ 100 nM.
For `C=CC(=O)N1CC[C@H](n2nc(C#Cc3cc4ncn(CC)c4cc3Cl)c3c(N)ncnc32)C1` [Example 132, 1-[(3S)-3-{4-Amino-3-[2-(6-chloro-1-ethyl-1,3-benzodiazol-5-yl)ethynyl]pyrazolo[3,4-d]pyrimidin-1-yl}pyrrolidin-1-yl]prop-2-en-1-one] the value was ≤ 100 nM.
As to `C=CC(=O)N1CC[C@H](n2nc(C#Cc3cc4ncn(CC)c4cc3Cl)c3c(N)nccc32)C1` [Example 133, (S)-1-(3-(4-Amino-3-((6-chloro-1-ethyl-1H-benzo[d]imidazol-5-yl)ethynyl)-1H-pyrazolo[4,3-c]pyridin-1-yl)pyrrolidin-1-yl)prop-2-en-1-one], the IC50 is ≤ 100 nM.
To `[2H]C([2H])([2H])OC[C@H]1C[C@H](n2nc(C#Cc3c(F)cc4c(ncn4C)c3F)c3c(N)ncnc32)CN1C(=O)C=C` [Example 134, 1-[(2R,4S)-4-[4-Amino-3-[2-(4,6-difluoro-1-methyl-1,3-benzodiazol-5-yl)ethynyl]pyrazolo[3,4-d]pyrimidin-1-yl]-2-[(2H3)methoxymethyl]pyrrolidin-1-yl]prop-2-en-1-one] belongs ≤ 100 nM.
